Literature values in patent publication US7910678B2, “Copolymers having 1-methyl-2-methoxyethyl moieties” (Abbott Laboratories, priority 2006, dated 2011).
Read-outs that look alike come from different tables or passages of the source.

System: mouse

Row | SMILES | Oral-mouse LD50 (oral) [mg/kg] | Oral-mouse LD50 (in vivo, po) [mg/kg]
1 | COCC(C)O (stereo not shown) [1-methoxy-2-propanol] | 11700 | 
2 | CCO [ethanol] |  | 3450
3 | CCOCCO [2-ethoxyethanol] | 2451 | 
4 | COCCO [2-methoxyethanol] | 2560 | 
